Laboratory results from patent US12410220B2, “Modulation of mammalian cell lineage by synthetic immodulins” (priority 2021, dated 2025).
Marks after values point to notes of the source that are not given here. Peptide text beside a SMILES is read from it.

Experiments:
[1] = Ferric iron-binding assay of biotinylated immodulin peptides; conditions: N-terminally biotinylated peptide, 400 ng per well, 60 min room temperature; immX3AVD = 100
Method in brief: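 N-terminally biotinylated peptides (400 ng/well) were tested for ferric iron binding in two formats: streptavidin-A488 complexes on Fe3+-charged NTA plates, or streptavidin-captured peptide probed with FITC-NTA·Fe3+. Each step was 60 min at room temperature with fluorescence read at 525 nm. Values are normalized to immX3AVD control (100) and averaged across both protocols.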

RXR-alpha = molecular target: T1, RXR-alpha (Homo sapiens, UniProt P19793); experiment: Experiment 4B binding to full length RXR-alpha; conditions: 400 ng/well protein; 800 ng/well SA488-labelled peptide, 2 hours
T1 construct: 400 ng/well full length RXR-alpha, RXR-beta, RXR-gamma or PPAR-gamma; purchased Abcam, Cambridge, MA
T1 sequence (P19793 1-462): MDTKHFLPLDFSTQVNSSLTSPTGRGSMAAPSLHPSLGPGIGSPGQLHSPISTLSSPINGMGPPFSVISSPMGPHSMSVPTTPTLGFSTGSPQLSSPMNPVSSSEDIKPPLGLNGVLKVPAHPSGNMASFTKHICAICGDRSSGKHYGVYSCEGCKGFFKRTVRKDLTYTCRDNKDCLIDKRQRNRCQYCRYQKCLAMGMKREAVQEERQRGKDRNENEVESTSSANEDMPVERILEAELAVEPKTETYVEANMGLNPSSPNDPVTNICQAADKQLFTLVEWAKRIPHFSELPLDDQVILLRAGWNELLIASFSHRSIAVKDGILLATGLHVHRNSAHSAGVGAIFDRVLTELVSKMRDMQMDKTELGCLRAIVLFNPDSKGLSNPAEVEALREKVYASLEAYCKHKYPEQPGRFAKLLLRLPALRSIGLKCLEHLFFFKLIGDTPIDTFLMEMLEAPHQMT
Protocol: (§1) Experiment 4B. Binding of immodulin peptides to RXR isoforms and domains. 100 ng/well recombinant human RXRa-DBD or RXRa-LBD, or 400 ng/well full length RXR-alpha, RXR-beta, RXR-gamma or PPAR-gamma (Abcam, Cambridge, MA) was adsorbed to wells of a 96-well plate for 60 minutes at room temperature, then blocked with 200 uL 1% BSA in PBS buffer overnight. The plate was washed with PBS and 800 ng/well Streptavidin-Alexa 488 conjugate (SA488)-labelled peptide was added. The plate was incubated for 2 hours at room temperature, washed and counted in a fluorometer (excitation/emission 485/525 nm). Significant binding above background is also shown (**p<0.05). […] When tested against domains of RXR-alpha, these peptides bind the DNA-binding domain (DBD) better than the ligand-binding domain (LBD).

RXR-beta = molecular target: T2, RXR-beta (Homo sapiens, UniProt P28702); experiment: Experiment 4B binding to full length RXR-beta; conditions: 400 ng/well protein; 800 ng/well SA488-labelled peptide, 2 hours
T2 construct: 400 ng/well full length RXR-alpha, RXR-beta, RXR-gamma or PPAR-gamma; purchased Abcam, Cambridge, MA
T2 sequence (P28702 1-533): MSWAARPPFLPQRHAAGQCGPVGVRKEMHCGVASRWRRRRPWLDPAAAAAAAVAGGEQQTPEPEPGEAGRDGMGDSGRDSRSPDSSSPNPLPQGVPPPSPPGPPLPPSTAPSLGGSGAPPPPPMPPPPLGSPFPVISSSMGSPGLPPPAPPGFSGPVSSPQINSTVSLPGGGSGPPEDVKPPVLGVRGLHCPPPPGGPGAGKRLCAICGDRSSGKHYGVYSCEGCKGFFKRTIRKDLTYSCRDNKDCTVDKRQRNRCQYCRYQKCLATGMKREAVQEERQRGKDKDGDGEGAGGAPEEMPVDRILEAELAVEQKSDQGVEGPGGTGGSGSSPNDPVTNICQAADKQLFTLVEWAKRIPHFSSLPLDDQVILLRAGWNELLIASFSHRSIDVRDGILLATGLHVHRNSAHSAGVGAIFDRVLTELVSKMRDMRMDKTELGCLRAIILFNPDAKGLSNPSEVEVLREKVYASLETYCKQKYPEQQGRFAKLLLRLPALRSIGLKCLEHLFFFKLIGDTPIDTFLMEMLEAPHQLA
Protocol: as §1

RXR-gamma = molecular target: T3, RXR-gamma (Homo sapiens, UniProt P48443); experiment: Experiment 4B binding to full length RXR-gamma; conditions: 400 ng/well protein; 800 ng/well SA488-labelled peptide, 2 hours
T3 construct: 400 ng/well full length RXR-alpha, RXR-beta, RXR-gamma or PPAR-gamma; purchased Abcam, Cambridge, MA
T3 sequence (P48443 1-463): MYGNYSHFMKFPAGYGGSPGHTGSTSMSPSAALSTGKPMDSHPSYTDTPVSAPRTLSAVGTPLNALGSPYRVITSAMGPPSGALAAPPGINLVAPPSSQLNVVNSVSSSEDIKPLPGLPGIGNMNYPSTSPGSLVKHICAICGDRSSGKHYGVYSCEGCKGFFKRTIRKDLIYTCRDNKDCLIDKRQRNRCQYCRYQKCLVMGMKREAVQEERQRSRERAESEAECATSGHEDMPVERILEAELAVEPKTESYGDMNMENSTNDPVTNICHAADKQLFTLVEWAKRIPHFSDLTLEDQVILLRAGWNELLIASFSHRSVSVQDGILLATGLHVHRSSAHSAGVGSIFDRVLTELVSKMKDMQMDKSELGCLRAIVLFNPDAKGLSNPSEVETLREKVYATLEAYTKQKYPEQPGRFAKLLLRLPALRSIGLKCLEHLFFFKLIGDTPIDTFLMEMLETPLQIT
Protocol: as §1

RXR-alpha DBD = molecular target: T4, RXR-alpha DBD (Homo sapiens, UniProt P19793); experiment: Experiment 4B binding to RXR-alpha DBD; conditions: 100 ng/well protein; 800 ng/well SA488-labelled peptide, 2 hours
T4 construct: purchased Abcam, Cambridge, MA
T4 sequence (P19793 111-228): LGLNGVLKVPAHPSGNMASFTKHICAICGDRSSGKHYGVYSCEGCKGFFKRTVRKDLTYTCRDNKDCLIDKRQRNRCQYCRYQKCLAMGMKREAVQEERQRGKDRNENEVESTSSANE
Protocol: as §1

RXR-alpha LBD = molecular target: T5, RXR-alpha LBD (Homo sapiens, UniProt P19793); experiment: Experiment 4B binding to RXR-alpha LBD; conditions: 100 ng/well protein; 800 ng/well SA488-labelled peptide, 2 hours
T5 construct: purchased Abcam, Cambridge, MA
T5 sequence (P19793 227-458 limits assumed): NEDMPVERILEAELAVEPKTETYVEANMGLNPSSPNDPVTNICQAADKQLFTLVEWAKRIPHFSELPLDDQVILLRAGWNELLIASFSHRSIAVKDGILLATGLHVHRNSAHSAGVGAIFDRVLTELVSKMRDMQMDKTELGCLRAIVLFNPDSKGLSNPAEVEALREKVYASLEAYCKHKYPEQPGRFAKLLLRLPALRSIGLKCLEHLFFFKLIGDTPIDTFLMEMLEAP
Protocol: as §1

N=C(N)NCCC[C@H](NC(=O)CNC(=O)[C@H](CCCCN)NC(=O)[C@H](CO)NC(=O)[C@@H]1CCCN1C(=O)[C@H](CCCNC(=N)N)NC(=O)[C@H](CS)NC(=O)[C@H](CCC(N)=O)NC(=O)[C@H](CCCCN)NC(=O)[C@H](CCCCN)NC(=O)[C@H](CCCCN)NC(=O)[C@H](Cc1ccc(O)cc1)NC(=O)[C@H](Cc1ccccc1)NC(=O)CNC(=O)[C@H](CCCCN)NC(=O)[C@@H](N)CCCCN)C(=O)N[C@@H](CCCCN)C(=O)N[C@@H](CCCNC(=N)N)C(=O)NCC(=O)N[C@@H](Cc1ccccc1)C(=O)N[C@@H](CS)C(=O)N[C@@H](Cc1c[nH]c2ccccc12)C(=O)O [imm3] (H-KKGFYKKKQCRPSKGRKRGFCW-OH; N-terminus and C-terminus assumed)
Ferric iron binding, fluorescence standardized to immX3AVD control peptide (100), Avg ± SD [1]: 66.7 ± 4.7**
Binding to RXR-alpha relative to imm3 binding to RXR-gamma (=100) (RXR-alpha): 11.2 ± 1.0**
Binding to RXR-beta relative to imm3 binding (=100) (RXR-beta): 2.9 ± 1.1
Binding to RXR-gamma relative to imm3 binding (=100) (RXR-gamma): 100.0 ± 16.5**
Binding to RXR-alpha DBD relative to imm3 binding (=100) (RXR-alpha DBD): 22.2 ± 2.4**
Binding to RXR-alpha LBD relative to imm3 binding (=100) (RXR-alpha LBD): 0.6 ± 1.5

CC(C)C[C@H](NC(=O)[C@H](C)NC(=O)[C@@H]1CCCN1C(=O)[C@H](Cc1c[nH]cn1)NC(=O)[C@H](CS)NC(=O)[C@H](CCC(N)=O)NC(=O)[C@H](CCCCN)NC(=O)[C@@H]1CCCN1C(=O)[C@H](Cc1c[nH]cn1)NC(=O)[C@H](Cc1ccccc1)NC(=O)[C@H](CC(N)=O)NC(=O)CNC(=O)[C@H](CC(N)=O)NC(=O)[C@@H](N)CCCNC(=N)N)C(=O)N[C@@H](CC(=O)O)C(=O)NCC(=O)N[C@@H](CCC(N)=O)C(=O)N[C@@H](CCCNC(=N)N)C(=O)NCC(=O)N[C@@H](CCCCN)C(=O)N[C@@H](CS)C(=O)N[C@@H](Cc1c[nH]c2ccccc12)C(=O)O [imm4] (H-RNGNFHPKQCHPALDGQRGKCW-OH; N-terminus and C-terminus assumed)
Ferric iron binding, fluorescence standardized to immX3AVD control peptide (100), Avg ± SD [1]: 3.3 ± 1.5**
Binding to RXR-alpha relative to imm3 binding to RXR-gamma (=100) (RXR-alpha): 3.6 ± 1.3
Binding to RXR-beta relative to imm3 binding (=100) (RXR-beta): 0.3 ± 1.2
Binding to RXR-gamma relative to imm3 binding (=100) (RXR-gamma): 3.6 ± 7.0
Binding to RXR-alpha DBD relative to imm3 binding (=100) (RXR-alpha DBD): 3.2 ± 2.0
Binding to RXR-alpha LBD relative to imm3 binding (=100) (RXR-alpha LBD): 3.0 ± 1.3

CC[C@H](C)[C@H](NC(=O)CNC(=O)[C@H](CCCNC(=N)N)NC(=O)[C@H](CCCCN)NC(=O)[C@H](CCCNC(=N)N)NC(=O)CNC(=O)[C@H](CCCNC(=N)N)NC(=O)[C@H](CO)NC(=O)[C@@H]1CCCN1C(=O)[C@H](CCCCN)NC(=O)[C@H](CS)NC(=O)[C@H](CCC(N)=O)NC(=O)[C@H](CCCCN)NC(=O)[C@H](CCCNC(=N)N)NC(=O)[C@H](CCCCN)NC(=O)[C@H](Cc1ccc(O)cc1)NC(=O)[C@H](Cc1ccccc1)NC(=O)CNC(=O)[C@H](CCCCN)NC(=O)[C@@H](N)CCCNC(=N)N)C(=O)N[C@@H](CS)C(=O)N[C@@H](Cc1c[nH]c2ccccc12)C(=O)O [imm5] (H-RKGFYKRKQCKPSRGRKRGICW-OH; N-terminus and C-terminus assumed)
Ferric iron binding, fluorescence standardized to immX3AVD control peptide (100), Avg ± SD [1]: 71.6 ± 6.6**
Binding to RXR-alpha relative to imm3 binding to RXR-gamma (=100) (RXR-alpha): 17.2 ± 0.3**
Binding to RXR-beta relative to imm3 binding (=100) (RXR-beta): 4.0 ± 0.8
Binding to RXR-gamma relative to imm3 binding (=100) (RXR-gamma): 90.0 ± 19.6**
Binding to RXR-alpha DBD relative to imm3 binding (=100) (RXR-alpha DBD): 22.7 ± 3.1**
Binding to RXR-alpha LBD relative to imm3 binding (=100) (RXR-alpha LBD): 1.8 ± 1.9

N=C(N)NCCC[C@H](NC(=O)[C@H](CCCNC(=N)N)NC(=O)[C@H](CCC(N)=O)NC(=O)CNC(=O)[C@H](CCC(N)=O)NC(=O)[C@H](CO)NC(=O)[C@H](CO)NC(=O)[C@H](CCCNC(=N)N)NC(=O)[C@H](CS)NC(=O)[C@H](CCC(N)=O)NC(=O)[C@H](CCCNC(=N)N)NC(=O)[C@H](CCCCN)NC(=O)[C@H](CCCNC(=N)N)NC(=O)[C@H](Cc1ccc(O)cc1)NC(=O)[C@H](Cc1ccccc1)NC(=O)CNC(=O)[C@H](CCCNC(=N)N)NC(=O)[C@@H](N)Cc1c[nH]cn1)C(=O)NCC(=O)N1CCC[C@H]1C(=O)N[C@@H](CS)C(=O)N[C@@H](Cc1c[nH]c2ccccc12)C(=O)O [imm6] (H-HRGFYRKRQCRSSQGQRRGPCW-OH; N-terminus and C-terminus assumed)
Ferric iron binding, fluorescence standardized to immX3AVD control peptide (100), Avg ± SD [1]: 65.9 ± 4.9**
Binding to RXR-alpha relative to imm3 binding to RXR-gamma (=100) (RXR-alpha): 12.9 ± 0.5**
Binding to RXR-beta relative to imm3 binding (=100) (RXR-beta): 4.7 ± 0.4
Binding to RXR-gamma relative to imm3 binding (=100) (RXR-gamma): 42.0 ± 11.6**
Binding to RXR-alpha DBD relative to imm3 binding (=100) (RXR-alpha DBD): 22.9 ± 2.1**
Binding to RXR-alpha LBD relative to imm3 binding (=100) (RXR-alpha LBD): 1.6 ± 1.4
